# Experimental data taken from patent US6482949B1, “Colormetric sensor compositions and methods” (priority 1999, dated 2002).
# What was measured:
# [1] = Colorimetric assay: visual color change in solution on addition of fluoride anion; settings: in solution (dichloromethane), naked eye
# Description: (§1) Nonetheless, even with these control systems the addition of tetrabutylammonium salts of various anions (F^−, Cl^− and H2PO4^−), gave rise to results that were quite interesting. […] Such effects can be rationalized in terms of the electron withdrawing nature of the two carbonyl groups, which serve to pull the electrons from the pyrrole units and thus act to increase the acidity of the pyrrolic NH protons. As a result, hydrogen bonding interactions with F^− are favored. In the particular case of inorganic phosphate, we speculate that the two carbonyl groups may also be involved in binding, stabilizing the complex via ancillary hydrogen bonding interactions involving the two HOP-phosphate protons.
# Unfortunately, the fluorescence quantum yield of 10 is low.
# Using 2,3-dipyrrol-2′yl-5,6dicyanopyrazine (preparation is described in Example 30) as a sensing compound, a vivid yellow-to-red color change in solution observed upon addition of fluoride ion verifies that the quinoxaline backbone is not essential for chemical sensing in this family of compounds. This is consistent with the theory that changes in orbital overlap between the pi systems of conjugated bridging unit and the pyrrole rings account for the sensitivity of the sensing elements to analyte species.
# In order to understand more fully the above results, studies were performed to map out the mode of fluoride anion binding. Firstly, it was verified that two pyrrolic nitrogens are required to observe the anion-induced color change. Toward this end, the mono protected 2,3-dipyrrylquinoxaline 12 was prepared by reacting 0.8 equivalents of SEMCl with one equivalent of 2,3-dipyrrylquinoxaline.
# [2] = Anion binding constants (Ka) by fluorescence quenching / UV-vis absorbance titration, fluoride; settings: for Anion binding constant (Ka), F^−: 1 by fluorescence quenching (λex 412 nm), 10 by UV-vis absorbance titration at 341 nm, errors ± 10%, average of 2-4 trials; for affinity constant (Ka) for F^− binding, rounded: in dichloromethane
# Description: (§2) The conclusion that 1 binds fluoride anion in dichloromethane solution was further supported by mass spectrometric analyses and titration experiments made using UV-visible absorption and fluorescence emission methods (Tables 1 and 2). The latter studies, which provided Ka values (Tables 1 and 2), were complemented by molar ratio analyses (Job plots) with 1:1 binding stoichiometries observed in all cases.
# as §1
# [3] = Anion binding constants (Ka) by fluorescence quenching / UV-vis absorbance titration, chloride; settings: dichloromethane; for Anion binding constant (Ka), Cl^−: 1 by fluorescence quenching, 10 by UV-vis absorbance titration at 341 nm, errors ± 10%, average of 2-4 trials
# Description: as §2, §1
# [4] = Anion binding constants (Ka) by fluorescence quenching / UV-vis absorbance titration, dihydrogen phosphate; settings: dichloromethane; for Anion binding constant (Ka), H2PO4^−: 1 by fluorescence quenching, 10 by UV-vis absorbance titration at 341 nm, errors ± 10%, average of 2-4 trials
# Description: as §2, §1
"Anion binding constant (Ka), F^− ([2]; dichloromethane)","affinity constant (Ka) for F^− binding, rounded [2]","Anion binding constant (Ka), Cl^− [3] [M⁻¹]","Anion binding constant (Ka), H2PO4^− [4] [M⁻¹]",Structure (SMILES),fluoride anion-induced color change [1],"change in the absorbance or emission spectra on addition of F^− ([2]; dichloromethane, tetrabutylammonium salt)",change in the absorbance or emission spectra on addition of Cl^− ([3]; tetrabutylammonium salt),change in the absorbance or emission spectra on addition of H2PO4^− ([4]; tetrabutylammonium salt)
–,–,–,–,"N#Cc1nc(-c2ccc[nH]2)c(-c2ccc[nH]2)nc1C#N [2,3-dipyrrol-2′yl-5,6dicyanopyrazine, 2,3-dipyrrol-2′yl-5,6-dicyanopyrazine]",yellow-to-red,–,–,–
"2,300 M^−1",2000 M⁻¹,<50,<50,"COc1cc2nc(-c3ccc[nH]3)c(-c3ccc[nH]3)nc2cc1OC [compound 2, 2,3-dipyrrol-2′-yl-6,7-dimethoxyquinoxaline]",hardly “works” at all,–,–,–
"117,000 M^−1",~10^5 M^−1,45,55,"O=[N+]([O-])c1cc2nc(-c3ccc[nH]3)c(-c3ccc[nH]3)nc2cc1[N+](=O)[O-] [compound 3, 2,3-dipyrrol-2′-yl-6,7-dinitroquinoxaline]",–,–,–,–
"118,000 M^−1",~10^5 M^−1,45,80,"O=[N+]([O-])c1ccc2nc(-c3ccc[nH]3)c(-c3ccc[nH]3)nc2c1 [compound 7, 6-nitro-2,3-dipyrrylquinoxaline]",yellow to purple,–,–,–
–,–,–,–,"c1ccc2nccnc2c1 [compound 11, quinoxaline, reference compound]",–,did not induce any significant change in the absorbance or emission spectra,did not induce any significant change in the absorbance or emission spectra,did not induce any significant change in the absorbance or emission spectra

Structure (SMILES),"Anion binding constant (Ka), F^− ([2]; dichloromethane)","affinity constant (Ka) for F^− binding, rounded [2]","Anion binding constant (Ka), Cl^− [3] [M⁻¹]","Anion binding constant (Ka), H2PO4^− [4] [M⁻¹]",fluoride anion-induced color change [1],"change in the absorbance or emission spectra on addition of F^− ([2]; dichloromethane, tetrabutylammonium salt)",change in the absorbance or emission spectra on addition of Cl^− ([3]; tetrabutylammonium salt),change in the absorbance or emission spectra on addition of H2PO4^− ([4]; tetrabutylammonium salt)
"c1c[nH]c(-c2nc3ccccc3nc2-c2ccc[nH]2)c1 [compound 1, 2,3-dipyrrylquinoxaline]","18,200 M^−1",20000 M⁻¹,50,60,yellow to orange,–,–,–
C[Si](C)(C)CCOCn1cccc1-c1nc2ccccc2nc1-c1ccc[nH]1 [compound 12],"2,300 M^−1",–,<50,<50,no color change,–,–,–
